Test results: the NIST ThermoML archive (doi:10.1016/j.jct.2015.12.031)
± gives the expanded uncertainty stated by the source.

Tests used:
[1] = refractive index (Na D-line) (dimensionless); mn = molality of the nth substance listed, in mol/kg; conditions: 86.5 kPa, Liquid, Standard Abbe refractometry
[2] = mn = molality of the nth substance listed, in mol/kg; conditions: 86.5 kPa, Liquid; for speed of sound: Frequency=3 MHz, Sing-around technique in a fixed-path interferometer; for mass density: Vibrating tube method

CCCCCCCCn1cc[n+](C)c1.[Br-] [1-methyl-3-octylimidazolium bromide] + c1ccsc1
Conditions	mass density, [2] [kg/m3]	refractive index, [1]	speed of sound, [2] [m/s]
288.15 K, m2 = 0	1179.37 ± 7.4	1.525 ± 0.0012	1605.2 ± 3.2
288.15 K, m2 = 0.0087	1179.17 ± 7.4	1.5248 ± 0.0012	1603.7 ± 3.2
288.15 K, m2 = 0.022	1178.88 ± 7.4	1.5245 ± 0.0012	1601.5 ± 3.2
288.15 K, m2 = 0.032	1178.66 ± 7.4	1.5242 ± 0.0012	1599.9 ± 3.2
288.15 K, m2 = 0.0435	1178.43 ± 7.4	1.524 ± 0.0012	1598.3 ± 3.2
288.15 K, m2 = 0.0556	1178.18 ± 7.4	1.5238 ± 0.0012	1596.8 ± 3.2
288.15 K, m2 = 0.0663	1177.97 ± 7.4	1.5235 ± 0.0012	1595.7 ± 3.2
288.15 K, m2 = 0.0821	1177.68 ± 7.4	1.5232 ± 0.0012	1594.3 ± 3.2
288.15 K, m2 = 0.0923	1177.49 ± 7.4	1.5229 ± 0.0012	1593.4 ± 3.2
288.15 K, m2 = 0.107	1177.22 ± 7.4	1.5226 ± 0.0012	1592.3 ± 3.2
288.15 K, m2 = 0.1464	1176.57 ± 7.4	1.5221 ± 0.0012	1590.2 ± 3.2
288.15 K, m2 = 0.1765	1176.08 ± 7.4	1.5216 ± 0.0012	1588.8 ± 3.2
293.15 K, m2 = 0	1176.17 ± 7.4	1.5236 ± 0.0012	1581.9 ± 3.2
293.15 K, m2 = 0.0087	1175.97 ± 7.4	1.5233 ± 0.0012	1581 ± 3.2
293.15 K, m2 = 0.022	1175.68 ± 7.4	1.5231 ± 0.0012	1579.5 ± 3.2
293.15 K, m2 = 0.032	1175.46 ± 7.4	1.5228 ± 0.0012	1578.6 ± 3.2
293.15 K, m2 = 0.0435	1175.23 ± 7.4	1.5226 ± 0.0012	1577.6 ± 3.2
293.15 K, m2 = 0.0556	1174.97 ± 7.4	1.5223 ± 0.0012	1576.5 ± 3.2
293.15 K, m2 = 0.0663	1174.75 ± 7.4	1.522 ± 0.0012	1575.7 ± 3.2
293.15 K, m2 = 0.0821	1174.47 ± 7.4	1.5217 ± 0.0012	1574.6 ± 3.2
293.15 K, m2 = 0.0923	1174.27 ± 7.4	1.5214 ± 0.0012	1573.8 ± 3.2
293.15 K, m2 = 0.107	1174.01 ± 7.4	1.5211 ± 0.0012	1572.9 ± 3.2
293.15 K, m2 = 0.1464	1173.34 ± 7.4	1.5205 ± 0.0012	1571.1 ± 3.2
293.15 K, m2 = 0.1765	1172.85 ± 7.4	1.52 ± 0.0012	1570.2 ± 3.2
298.15 K, m2 = 0	1172.98 ± 7.4	1.5221 ± 0.0012	1561.9 ± 3.2
298.15 K, m2 = 0.0087	1172.78 ± 7.4	1.5219 ± 0.0012	1561.3 ± 3.2
298.15 K, m2 = 0.022	1172.48 ± 7.4	1.5216 ± 0.0012	1560.3 ± 3.2
298.15 K, m2 = 0.032	1172.27 ± 7.4	1.5213 ± 0.0012	1559.7 ± 3.2
298.15 K, m2 = 0.0435	1172.02 ± 7.4	1.521 ± 0.0012	1558.9 ± 3.2
298.15 K, m2 = 0.0556	1171.78 ± 7.4	1.5207 ± 0.0012	1558.2 ± 3.2
298.15 K, m2 = 0.0663	1171.57 ± 7.4	1.5203 ± 0.0012	1557.5 ± 3.2
298.15 K, m2 = 0.0821	1171.26 ± 7.4	1.52 ± 0.0012	1556.5 ± 3.2
298.15 K, m2 = 0.0923	1171.07 ± 7.4	1.5197 ± 0.0012	1555.9 ± 3.2
298.15 K, m2 = 0.107	1170.8 ± 7.4	1.5193 ± 0.0012	1555.1 ± 3.2
298.15 K, m2 = 0.1464	1170.16 ± 7.4	1.5187 ± 0.0012	1553.5 ± 3.2
298.15 K, m2 = 0.1765	1169.7 ± 7.4	1.5181 ± 0.0012	1552.3 ± 3.2
303.15 K, m2 = 0	1169.86 ± 7.4	1.5206 ± 0.0012	1542.8 ± 3.2
303.15 K, m2 = 0.0087	1169.65 ± 7.4	1.5205 ± 0.0012	1542.3 ± 3.2
303.15 K, m2 = 0.022	1169.35 ± 7.4	1.5202 ± 0.0012	1541.6 ± 3.2
303.15 K, m2 = 0.032	1169.13 ± 7.4	1.5199 ± 0.0012	1541.1 ± 3.2
303.15 K, m2 = 0.0435	1168.88 ± 7.4	1.5196 ± 0.0012	1540.7 ± 3.2
303.15 K, m2 = 0.0556	1168.64 ± 7.4	1.5192 ± 0.0012	1540.1 ± 3.2
303.15 K, m2 = 0.0663	1168.42 ± 7.4	1.5189 ± 0.0012	1539.6 ± 3.2
303.15 K, m2 = 0.0821	1168.12 ± 7.4	1.5185 ± 0.0012	1539.1 ± 3.2
303.15 K, m2 = 0.0923	1167.93 ± 7.4	1.5182 ± 0.0012	1538.5 ± 3.2
303.15 K, m2 = 0.107	1167.67 ± 7.4	1.5179 ± 0.0012	1538 ± 3.2
303.15 K, m2 = 0.1464	1167.05 ± 7.4	1.5171 ± 0.0012	1536.6 ± 3.2
303.15 K, m2 = 0.1765	1166.59 ± 7.4	1.5166 ± 0.0012	1535.7 ± 3.2
